Values joined by “and” are separate entries in the source; they are usually repeats but may differ in a detail not shown here. Equal entries are not always repeated. “Also recorded” adds a separate entry of the source. Blank lines part the entries; values can stand above or below the compound they belong to. Where a SMILES comes first, the peptide text is derived from it. [ ]: non-standard residue; d: D form. pY = N[C@@H](Cc1ccc(OP(=O)(O)O)cc1)C(=O)O
What was measured:
Shc PTB domain = target: T1, Shc PTB domain (Homo sapiens, UniProt P29353); experiment: Surface plasmon resonance competition: GST-Shc PTB domain binding to immobilized middle T antigen phosphopeptide; conditions: IC50, inhibition of binding of the Shc PTB domain to the middle T antigen phosphopeptide, BIAcore, soluble competing phosphopeptide
T1 construct: the PTB domain fusion construct comprises amino acids 1-225 of human p52 Shc; made in house; host or cells: E. coli
T1 sequence (P29353 1-225 isoform P29353-2): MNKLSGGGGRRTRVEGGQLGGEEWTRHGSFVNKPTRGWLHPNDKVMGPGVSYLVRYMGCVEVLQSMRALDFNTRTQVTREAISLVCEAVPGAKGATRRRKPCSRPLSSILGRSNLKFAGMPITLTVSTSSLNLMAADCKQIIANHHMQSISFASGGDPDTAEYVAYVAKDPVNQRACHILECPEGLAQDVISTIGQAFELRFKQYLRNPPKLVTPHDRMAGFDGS
Description: Surface plasmon resonance—experiments were done with a BIAcore instrument (Pharmacia). A phosphopeptide corresponding to the NPXY sequence in the polyomavirus middle T antigen (mT) (LSLLSNPTpYSVNSK) was absorbed to the surface of a biosensor chip. Binding of soluble GST-Shc PTB domain fusion protein to the mT peptide was measured in the presence or absence of competing soluble phosphopeptides based on the sequences around Tyr 513 of DDR1b or Tyr 490 of the NGFR (HIIENPQpYFSD) (21).
Experiments were done with a BIAcore instrument (Pharmacia). A phosphopeptide corresponding to the NPXY sequence in the polyomavirus middle T antigen (LSLLSNPTpYSVMRSK) was absorbed to the surface of a biosensor chip. Binding of soluble GST-Shc PTB domain fusion protein to the middle T peptide was measured in presence or absence of competing soluble phosphopeptides based on the sequences around tyrosine 513 of DDR1b (ALLLSNPApYRLLLA) or tyrosine 490 of the NGF receptor (HIIENPQpYFSD).

DDR receptors = experiment: Effect of other agents on DDR activity / collagen-induced DDR tyrosine phosphorylation; type: cell-based; conditions: for effect on DDR activity: collagen-associated molecules
DDR1b = target: T2, DDR1b (Homo sapiens, UniProt Q08345); experiment: Tyrosine phosphorylation of endogenous DDR1b in carcinoma cells (T-47D; A431), immunoprecipitation and anti-phosphotyrosine blot; type: cell-based; conditions: T-47D, 90 min; collagens/gelatin 10 μg/ml, orthovanadate 1 mM
T2 construct: endogenous in cells; host or cells: T-47D human mammary carcinoma cells (A431 also named)
Excerpt: To investigate the effects of collagen on cells that express endogenous DDR tyrosine kinases, the mammary carcinoma cell line T-47D was employed. Previous results have shown that DDR1 is highly expressed in human carcinoma cell lines, in particular, the breast cancer cell lines BT-20, MDA-MB-175 and T-47D (1) (Perez et al., 1996). […] The time course of endogenous DDR1b tyrosine phosphorylation in T-47D cells was even slower than in 293 cells, with maximal activation being achieved only after stimulation for 18 hours.
To further investigate the role of different types of collagen in the activation of DDR1 and DDR2, collagen types I, II, III and V purified from human placenta and collagen type II from bovine tracheal cartilage were obtained. To test their ability to induce receptor tyrosine phosphorylation, 293 cells overexpressing DDR1 or DDR2 were employed. […] The various types of collagen were also tested for their ability to stimulate tyrosine phosphorylation of endogenous DDR1b present in T-47D cells. For this purpose, DDR1b was immunoprecipitated from lysates of stimulated T-47D cells and analyzed by Western blotting with anti-phosphotyrosine antibodies. […] As previously shown, DDR1 tyrosine phosphorylation could also be activated by treating cells with 1 mM orthovanadate, an inhibitor of tyrosine phosphatases. Furthermore, gelatin which contains heat denatured collagen was tested for its capacity to induce DDR1b tyrosine phosphorylation.
Integrins of the type α1β1 and α2β1 have long been known to be receptors for collagen. Therefore, tests were conducted to determine if these integrins are somehow involved in the activation of DDR1b. The mammary carcinoma cell line T-47D, which endogenously expresses the b-isoform of DDR1, was used. Monoclonal antibodies directed against the extracellular domains of integrins can block binding to collagen and therefore signaling of integrins. T-47D cells were treated with antibody A2-IIE10 against α2-integrin and antibody DE9 against β1-integrin (both from Upstate Biotechnology) in the absence or presence of 10 μg/ml collagen type I overnight. DDR1b or Shc were immunoprecipitated from cellular lysates and analyzed by Western blotting with antiphosphotyrosine antibody.
DDR1b and DDR2 were transfected into 293 cells and were stimulated with 10 µg/ml mouse collagen type I for different periods of time. (FIG. 9A and FIG. 9B) Total cellular lysates were probed with antiphosphotyrosine antibody. Maximal activation is seen 90 min after stimulation of DDR1b (FIG. 9A) and DDR2 (FIG. 9B). (FIG. 9C) Human mammary carcinoma T-47D cells were cultivated on 10 cm dishes to confluence and starved in 0.5% serum overnight. Cells were stimulated with collagen type I for various periods of time and lysed. DDR1b was immunoprecipitated from the lysates and analyzed by Western blotting with antiphosphotyrosine antibody. Maximal phosphorylation of DDR1b is seen after stimulation for 18 h. An unidentified, tyrosine phosphorylated protein with an apparent molecular weight of 115 kDa is copurified in the immunoprecipitations. […] Prolonged stimulation with collagen increases the processing of DDR1b in T-47D cells, indicated by an additional 62 kDa band. (FIGS. 9E and 9F) DDR1b was immunoprecipitated from overexpressing 293 cells (E) and T-47D (FIG. 9F) cells and subjected to an in vitro kinase reaction. The incorporation of [^32P]-phosphate is monitored by SDS-PAGE followed by autoradiograpy.

DDR2 = target: T3, DDR2 (Homo sapiens, UniProt Q16832); experiment: DDR2 tyrosine phosphorylation in transfected 293 cells (anti-phosphotyrosine Western blot); type: cell-based; conditions: 90 min; for ligand activity: induction of DDR2 tyrosine phosphorylation: soluble agent added to medium of transfected 293 cells, 10 μg/ml
T3 construct: expressed in transfected cells; host or cells: 293 cells, CMV-based expression vector
T3 sequence (Q16832 22-855): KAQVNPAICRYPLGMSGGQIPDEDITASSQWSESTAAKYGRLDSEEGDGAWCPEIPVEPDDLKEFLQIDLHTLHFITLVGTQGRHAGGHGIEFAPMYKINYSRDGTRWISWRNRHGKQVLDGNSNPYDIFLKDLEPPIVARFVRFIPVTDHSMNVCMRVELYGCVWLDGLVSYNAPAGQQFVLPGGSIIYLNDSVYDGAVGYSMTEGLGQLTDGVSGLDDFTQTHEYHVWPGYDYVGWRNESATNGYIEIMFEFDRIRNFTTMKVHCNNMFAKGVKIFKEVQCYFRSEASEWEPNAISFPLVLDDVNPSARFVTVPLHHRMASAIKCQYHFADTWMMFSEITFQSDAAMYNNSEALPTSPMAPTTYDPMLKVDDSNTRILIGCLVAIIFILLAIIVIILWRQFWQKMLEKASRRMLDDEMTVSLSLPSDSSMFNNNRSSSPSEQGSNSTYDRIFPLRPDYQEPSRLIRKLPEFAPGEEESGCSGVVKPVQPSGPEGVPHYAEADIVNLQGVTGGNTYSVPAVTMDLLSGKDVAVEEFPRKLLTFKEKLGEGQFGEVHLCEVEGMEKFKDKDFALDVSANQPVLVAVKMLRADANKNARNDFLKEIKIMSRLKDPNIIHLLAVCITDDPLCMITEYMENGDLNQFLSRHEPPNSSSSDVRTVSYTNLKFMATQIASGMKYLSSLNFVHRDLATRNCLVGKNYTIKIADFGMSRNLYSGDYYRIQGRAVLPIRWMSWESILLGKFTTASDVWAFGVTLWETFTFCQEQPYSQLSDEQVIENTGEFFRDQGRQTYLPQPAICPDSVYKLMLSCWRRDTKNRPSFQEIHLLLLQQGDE
Description: (§1) Semiconfluent 293 cells were transfected by calcium-phosphate precipitation with a cytomegalovirus-based expression vector. Sixteen hours later, cells were transferred to serum-free media for another 24 h. Cells were stimulated with 10 μg/ml collagen for 90 min and lysed with 1% Triton-X 100, 50 mM HEPES (pH 7.5), 150 mM NaCl, 1.5 mM MgCl2, 5 mM EGTA, 5 mM EDTA, 10% glycerol, 10 mM NaF, 1 mM phenylmethylsulfonyl fluoride (PMSF), 1 mM Na-orthovanadate, 10 μg/ml aprotinin. The cellular lysates were centrifuged 10 min at 4° C. and 13,000 rpm and aliquots of the supernatant were subjected to SDS-PAGE or further analyzed by immunoprecipitation with specific antibodies for 3 h at 4° C. on a rotating wheel. The immunocomplex was washed three times with 20 mM HEPES (pH 7.5), 150 mM NaCl, 0.1% Triton, 10% glycerol and analyzed by SDS-PAGE. Proteins were transferred to nitrocellulose membrane (Schleicher & Schuell) and immunoblotted with antibodies diluted 1:500 in 50 mM Tris (pH 7.5), 150 mM NaCl, 5 mM EDTA, 0.05% gelatin overnight. Western blots were developed using horseradish peroxidase-coupled secondary antibody (Biorad) and enhanced chemiluminescence (Amersham). For reprobing, the membrane was stripped in 70 mM Tris (pH 6.8), 2% SDS, 0.1% P-mercaptoethanol at 55° C. for 30 min. For in vitro kinase assays, immunoprecipitates were washed twice with in 40 mM HEPES (pH 7.5), 20 mM MgCl2, 2 mM MnCl2, 100 μM orthovanadate, 5 μM dATP and incubated with 5 μCi [γ-^32P] ATP at 30° C. for 20 min. The products of the kinase reaction were monitored by SDS-PAGE and autoradiography.

DDR1 = target: T4, DDR1 (Homo sapiens, UniProt Q08345); experiment: DDR1 tyrosine phosphorylation in transfected 293 cells (anti-phosphotyrosine Western blot); type: cell-based; conditions: 90 min; for ligand activity: induction of DDR1 (DDR1b) tyrosine phosphorylation: soluble agent added to medium of transfected 293 cells, 10 μg/ml
T4 construct: expressed in transfected cells; host or cells: human embryonic kidney 293 cells, CMV-based expression vector
Description: as §1
To identify possible sources for the ligand of DDR1, an in vivo screening system was established. Human embryonic kidney fibroblast 293 cells were transiently transfected with expression plasmids coding for DDR1b. Growth-arrested cells were then stimulated with various agents and monitored for receptor activation by anti-phosphotyrosine Western blotting of total cellular lysates. […] The increase of DDR1b autophosphorylation was dependent on the concentration of matrigel added to the cells (FIG. 7A).

[1] = transfected 293 cells plated on collagen-coated dishes

T2 sequence (Q08345 19-913): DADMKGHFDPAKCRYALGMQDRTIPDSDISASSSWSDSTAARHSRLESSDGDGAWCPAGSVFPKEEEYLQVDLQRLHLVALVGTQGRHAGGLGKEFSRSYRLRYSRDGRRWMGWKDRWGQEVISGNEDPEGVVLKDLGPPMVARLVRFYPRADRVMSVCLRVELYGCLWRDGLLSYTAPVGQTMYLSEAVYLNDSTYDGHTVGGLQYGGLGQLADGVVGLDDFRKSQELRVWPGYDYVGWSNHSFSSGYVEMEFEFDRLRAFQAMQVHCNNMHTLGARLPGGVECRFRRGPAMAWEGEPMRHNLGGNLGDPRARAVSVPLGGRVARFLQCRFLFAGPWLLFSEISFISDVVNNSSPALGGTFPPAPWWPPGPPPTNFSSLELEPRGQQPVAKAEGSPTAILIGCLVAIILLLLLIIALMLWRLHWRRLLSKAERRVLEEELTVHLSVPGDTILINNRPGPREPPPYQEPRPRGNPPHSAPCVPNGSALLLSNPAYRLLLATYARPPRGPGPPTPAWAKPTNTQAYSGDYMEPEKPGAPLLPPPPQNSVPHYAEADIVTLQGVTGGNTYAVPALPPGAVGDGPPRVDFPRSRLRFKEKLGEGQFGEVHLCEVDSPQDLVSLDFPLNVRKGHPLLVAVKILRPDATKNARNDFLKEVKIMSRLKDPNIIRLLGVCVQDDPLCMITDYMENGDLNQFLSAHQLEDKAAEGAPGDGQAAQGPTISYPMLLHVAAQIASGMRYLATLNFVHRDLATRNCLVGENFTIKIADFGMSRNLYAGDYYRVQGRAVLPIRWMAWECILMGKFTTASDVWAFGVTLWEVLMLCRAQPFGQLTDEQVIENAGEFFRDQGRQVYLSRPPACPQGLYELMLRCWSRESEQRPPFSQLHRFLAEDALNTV
T4 sequence (Q08345 19-913): as above

Compound: CC[C@H](C)[C@H](NC(=O)[C@@H](NC(=O)[C@@H](N)Cc1c[nH]cn1)[C@@H](C)CC)C(=O)N[C@@H](CCC(=O)O)C(=O)N[C@@H](CC(N)=O)C(=O)N1CCC[C@H]1C(=O)N[C@@H](CCC(N)=O)C(=O)N[C@@H](Cc1ccc(OP(=O)(O)O)cc1)C(=O)N[C@@H](Cc1ccccc1)C(=O)N[C@@H](CO)C(=O)N[C@@H](CC(=O)O)C(=O)O [NGF receptor phosphopeptide, HIIENPQpYFSD] (H-HIIENPQ[pY]FSD-OH; N-terminus and C-terminus assumed)
- IC50 (Shc PTB domain): ~0.1 µM and 0.07 µM

- effect on DDR activity (DDR receptors): no effect
Compound: chondroitin-sulphate A

Compound: C[C@@H]1C[C@@H]([C@H](O)CC2CC(=O)NC(=O)C2)C(=O)[C@@H](C)C1 [cycloheximide, reference compound]
- effect on ability of collagen to induce DDR tyrosine phosphorylation (DDR receptors; treatment of cells, data not shown): not inhibited

- tyrosine phosphorylation of endogenous DDR1b in T-47D cells (DDR1b): lower, but still detectable
- DDR2 tyrosine phosphorylation on immobilized collagen (DDR2; [1]): triggered
- ligand activity: induction of DDR1 (DDR1b) tyrosine phosphorylation (DDR1): equally good ligands
- DDR1b tyrosine phosphorylation on immobilized collagen (DDR1; [1]): further increased
Compound: collagen type III: collagen type III purified from human placenta
- ligand activity: induction of DDR2 tyrosine phosphorylation (DDR2): highly potent ligands; also recorded: highly activated

- effect on DDR activity (DDR receptors): no effect
Compound: heparin

- tyrosine phosphorylation of endogenous DDR1b in T-47D cells (DDR1b): lower, but still detectable
- ligand activity: induction of DDR2 tyrosine phosphorylation (DDR2): moderate activity
Compound: collagen type II: collagen type II from bovine tracheal cartilage

- ligand activity: induction of DDR1 (DDR1b) tyrosine phosphorylation (DDR1): neither
Compound: laminin

- ligand activity: induction of DDR1 (DDR1b) tyrosine phosphorylation (DDR1): neither
Compound: fibronectin

- tyrosine phosphorylation of endogenous DDR1b in T-47D cells (DDR1b): did not induce an increase
Compound: gelatin

- tyrosine phosphorylation of endogenous DDR1b in T-47D cells (DDR1b): activated
Compound: [O]=[V]([O-])([O-])[O-] [orthovanadate, reference compound]

Source: US20030070184A1, “LIGANDS FOR DISCOIDIN DOMAIN RECEPTOR TYROSINE KINASES AND COMPLEXES THEREOF” (priority 1999, published 2003)
